Results taken from patent US6540995B1, “Encapsulated cells producing cytochrome P450” (priority 1996, dated 2003).

What was measured:
[1] = system: breast cancer cells transfected with the CYP2B1 gene; settings: another study; cited from earlier work
[2] = system: breast cancer cells transfected with the CYP2B1 gene; settings: another study; cited from earlier work; remark: listed apart in the source
[3] = system: CYP2B1 expressing cells
[4] = after administration of the drug to patients (Wright et al. 1995); cited from earlier work

SMILES	effect on tumours after implantation in nude mice [1]	effect on CYP2B1 transfected breast cancer cells [2]	sensitivity of CYP2B1 expressing cells compared with cells not expressing CYP2B1 [3]	plasma drug concentrations [4] [µM]
O=P1(N(CCCl)CCCl)NCCCO1 (stereo not shown) [cyclophosphamide]	tumour regression	cell killing	tenfold higher sensitivity	
O=P1(NCCCl)OCCCN1CCCl (stereo not shown) [ifosfamide]				100 to 500
